Test results: PMC8070033, “Bimetallic Iron–Palladium Catalyst System as a Lewis-Acid for the Synthesis of Novel Pharmacophores Based Indole Scaffold as Anticancer Agents” (Molecules, 2021)
In brackets after ≈: the same amount, converted by molar mass.

Columns and labels:
[1] = tested on: PC3 cells (Prostate Cancer); experiment: PC3 cells (Prostate Cancer) MTT assay; format: cell-based; conditions: for IC50: MTT assay, 48 hrs, ± SD from three independent experiments, NA: did not show anticancer activity at 30 µM
Protocol: (§1) Cytotoxicity against BJ Human fibroblast cells, and anti-cancer activity against PC3, HeLa and MCF-7 cancer cell lines were evaluated by following the procedure as described in the literature (Supplementary Materials).
The Biological Activity Assays Protocols
A. PC3 cells (Prostate Cancer) assay […]
For this purpose, PC3 cells (Prostate Cancer) were cultured in Dulbecco’s Modified Eagle Medium, supplemented with 5% of fetal bovine serum (FBS), 100 IU/ml of penicillin and 100 µg/ml of streptomycin in 75 cm2 flasks, and kept in 5% CO2 incubator at 37 °C. Exponentially growing cells were harvested, counted with haemocytometer and diluted with a particular medium. Cell culture with the concentration of 1x10^5 cells/ml was prepared and introduced (100 µL/well) into 96-well plates. After overnight incubation, medium was removed and 200 µL of fresh medium was added with different concentrations of compounds (1-30µM). After 48 hrs, 200 µL MTT (0.5 mg/ml) was added to each well and incubated further for 4 hrs. Subsequently, 100µL of DMSO was added to each well. The extent of MTT reduction to formazan within cells was calculated by measuring the absorbance at 570 nm, using a micro plate reader (Spectra Max plus, Molecular Devices, CA, USA). The cytotoxicity was recorded as concentration causing 50% growth inhibition (IC50) for PC3 cells. The percent inhibition was calculated by using the following formula: […]
(§2) of positive control – mean of O.D of negative control)*100).
(§3) The results (% inhibition) were processed by using Soft- Max Pro software (Molecular Device, USA).
Standard drug used in the MTT assay was doxorubicin.
(§4) 1. Mosmann T. Rapid colorimetric assay for cellular growth and survival: application to proliferation and cytotoxicity assays. J Immunol Meth 1983, 65, 55–63. […]

[2] = tested on: HeLa cells (Cervical Cancer); experiment: HeLa cells (Cervical Cancer) MTT assay; format: cell-based; conditions: Homo sapiens, HeLa, 48 h, ± SD from three independent experiments, NA: did not show anticancer activity at 30 µM
Protocol: (§5) Cytotoxicity against BJ Human fibroblast cells, and anti-cancer activity against PC3, HeLa and MCF-7 cancer cell lines were evaluated by following the procedure as described in the literature (Supplementary Materials). […]
as §2, §3
(§6) Following concentrations were used to calculate (in case) of IC50:
(§7) Standard drug used in the MTT assay was doxorubicin. […]
C. HeLa cells (Cervical Cancer) assay
Cytotoxic activity of compounds was evaluated in 96-well flat-bottomed micro plates by using the standard MTT (3-[4, 5-dimethylthiazole-2-yl]-2, 5-diphenyl-tetrazolium bromide) colorimetric assay40.
For this purpose, HeLa cells (Cervical Cancer) were cultured in Minimum Essential Medium Eagle, supplemented with 5% of fetal bovine serum (FBS) , 100 IU/ml of penicillin and 100 µg/ml of streptomycin in 75 cm2 flasks, and kept in 5% CO2 incubator at 37 °C. Exponentially growing cells were harvested, counted with haemocytometer and diluted with a particular medium. Cell culture with the concentration of 6x10^4 cells/ml was prepared and introduced (100 µL/well) into 96 -well plates. After overnight incubation, medium was removed and 200 µL of fresh medium was added with different concentrations of compounds (1-30µM). After 48 hrs, 200 µL MTT (0.5 mg/ml) was added to each well and incubated further for 4 hrs. Subsequently, 100µL of DMSO was added to each well. The extent of MTT reduction to formazan within cells was calculated by measuring the absorbance at 570 nm, using a micro plate reader (Spectra Max plus, Molecular Devices, CA, USA). The cytotoxicity was recorded as concentration causing 50% growth inhibition (IC 50) for HeLa. The percent inhibition was calculated by using the following formula: […]
The results (% inhibition) were processed by using Soft - Max Pro software (Molecular Device, USA).
as §4

[3] = tested on: MCF-7 breast cancer cell line; experiment: MCF-7 breast cancer cell line MTT assay; format: cell-based; conditions: for IC50: MTT assay, 48 hours, ± SD from three independent experiments, NA: did not show anticancer activity at 30 µM
Protocol: as §5
(§8) of positive control – mean of O.D of negative control)*100). […]
as §6, §7
D. MCF-7 breast cancer cell line assay.
MTT assay is a rapid and quantitative assay capable of measuring the surviving or proliferating cells.
It is based on the reduction of tetrazolium salt MTT (3-(4,5-dimethylthiazol-yl)-2,5-diphenyl tetrazolium bromide) by various dehydrogenase enzymes present in living cells. The tetrazolium ring present in MTT is cleaved in active mitochondria, which results in production of purple colored formazan crystals. These crystals are dissolved in DMSO and optical density of the color produced is taken by spectrophotometer (ELISA reader), with high efficiency and accuracy.
This assay was optimized and slightly modified according to our cell lines, i.e. MCF-7 breast cancer cell […]
1. MCF-7 cell line were cultured in Dulbecco’s modified Eagle medium (containing 10% fetal bovine serum) in 75 cc flasks, and kept in 5% CO 2 incubator at 37 °C.
2. Upon confluency, cells were harvested and plated in 96-well tissue culture treated flat bottom plates (seeding density 8,000 cells/well for MCF-7) in 100 µL medium.
3. Next day, compounds were added in triplicate at 50 µM concentration, and incubated for 48 hours. For natural extracts, the concentration was 50 µg/mL.
4. After 48 hrs incubation, the compounds were removed and 200 µL MTT at 0.5 mg/mL was added to each well and incubated at 37 °C for 3 hours.
5. Formazan crystals, formed by reduction of MTT were dissolved in 100 µL DMSO and absorbance was taken at 570 nm using micro-plate reader (Spectra Max plus, Molecular […]
6. The percent inhibition or decrease in viable cells was calculated by following formula:
% Inhibition = 100 - (mean of O.D. of test compound - mean of O.D. of negative control) / (mean of O.D. of positive control - mean of O.D. of negative control) x 100) […]
Twenty (20) mM stock concentration of compounds were diluted to working concentration of 50 µM, and then further serial dilutions were made in order to get less than 50% inhibition.
The IC50 was then calculated by using EZ-fit5 software.

[4] = tested on: Human fibroblast BJ; experiment: Cytotoxicity MTT assay, BJ human fibroblast cells; format: cell-based; conditions: 48 hrs, ± SD from three independent experiments, NA: did not show activity at 30 µM
Protocol: as §1
The Biological Activity Assays Protocols […]
as §8, §7
B. Cytotoxicity assay Protocol (BJ Human fibroblast cells) […]
standard MTT (3-[4, 5-dimethylthiazole-2-yl]-2, 5-diphenyl-tetrazolium bromide) colorimetric assay (Price & J. McMillan1, 1990). For this purpose, BJ Human fibroblast cells were cultured in Dulbecco’s Modified Eagle Medium, supplemented with 10% of fetal bovine serum (FBS), 100 IU/ml of penicillin and 100 µg/ml of streptomycin and 2 mM L‐glutamine in 75 cm2 flasks, and kept in 5% CO2 incubator at 37 °C (Mannerström, Toimela, Sarkanen & Heinonen, 2017).
Exponentially growing cells were harvested, counted with haemocytometer and diluted with a particular medium. Cell culture with the concentration of 6x10^4cells/ml was prepared and introduced (100 µL/well) into 96-well plates. After overnight incubation, medium was removed and 200 µL of fresh medium was added with different concentrations of compounds (1 -30µM). After 48 hrs, 200 µL MTT (0.5 mg/ml) was added to each well and incubated further for 3 hrs.
Subsequently, 100µL of DMSO was added to each well. The extent of MTT reduction to formazan within cells was calculated by measuring the absorbance at 550 nm, using a micro plate reader (Spectra Max plus, Molecular Devices, CA, USA). The cytotoxicity was recorded as concentra tion causing 50% growth inhibition (IC50) for BJ cells. The percent inhibition was calculated by using the following […]
Following concentrations were used to calculate (in case) of IC50: […]

[5] = tested on: P-388 cell lines; design: method as in PMID 8597898, doi:10.1016/j.tet.2007.05.127, doi:10.1021/jo00248a040; conditions: cited from earlier work
[6] = tested on: MDAMB (human mammary); design: method as in PMID 8597898, doi:10.1016/j.tet.2007.05.127, doi:10.1021/jo00248a040; conditions: cited from earlier work
[7] = tested on: HCT-8 (human colon); design: method as in PMID 8597898, doi:10.1016/j.tet.2007.05.127, doi:10.1021/jo00248a040; conditions: cited from earlier work
[8] = tested on: A-549 (human lung); design: method as in PMID 8597898, doi:10.1016/j.tet.2007.05.127, doi:10.1021/jo00248a040; conditions: cited from earlier work

SMILES | IC50 ([1]; Homo sapiens, PC-3, 48 h) | IC50 [2] | anticancer activity against MCF-7 breast cancer cell line (in words) ([3]; in comparison to doxorubicin) | melting point | IC50 [4] | IC50 ([3]; Homo sapiens, MCF7, 48 h) | IC50 [3] | IC50 [1] | anticancer activity against PC3 prostate cancer cell line (in words) ([1]; in comparison to doxorubicin) | IC50, anti-tumor activity against P-388 cell lines [5] | IC50 against MDAMB (human mammary) cancer cell line [6] | IC50 against HCT-8 (human colon) cancer cell line [7] | IC50 against A-549 (human lung) cancer cell line [8]
O=C(CC(c1cc2ccccc2o1)c1c[nH]c2ccccc12)c1ccccc1 (stereo not drawn) [Compound 3a, 3-(Benzofuran-2-yl)-3-(1H-indol-3-yl)-1-phenylpropan-1-one] | 11.4 ± 0.2 µM | 22.5 ± 0.9 µM | inactive | 114 to 115 °C |  |  |  |  |  |  |  |  | 
O=C(CC(c1cc2ccccc2o1)c1c[nH]c2ccccc12)c1ccc(F)cc1 (stereo not drawn) [Compound 3b, 3-(Benzofuran-2-yl)-1-(4-fluorophenyl)-3-(1H-indol-3-yl)propan-1-one] | 22.2 ± 0.5 µM | 8.2 ± 0.2 µM |  | 157 to 158 °C | > 30 µM | 12.3 ± 0.04 µM | 12.37 ± 0.04 µM |  |  |  |  |  | 
O=C(CC(c1cc2ccccc2o1)c1c[nH]c2ccc(Br)cc12)c1ccc(F)cc1 (stereo not drawn) [Compound 3c, 3-(Benzofuran-2-yl)-3-(5-bromo-1H-indol-3-yl)-1-(4-fluorophenyl)propan-1-one] | 21.9 ± 1.5 µM | 10.8 ± 0.1 µM |  | 167 to 168 °C | > 30 µM | 25.9 ± 0.8 µM |  |  |  |  |  |  | 
O=C(CC(c1cc2ccccc2o1)c1c[nH]c2ccccc12)c1ccc(Cl)cc1 (stereo not drawn) [Compound 3f, 3-(Benzofuran-2-yl)-1-(4-chlorophenyl)-3-(1H-indol-3-yl)propan-1-one] | 16.3 ± 1.6 µM | 11.9 ± 0.2 µM |  | 126 to 127 °C | > 30 µM | 19.3 ± 0.78 µM |  | 27 ± 0.4 µM |  |  |  |  | 
COc1cccc(C(=O)CC(c2cc3ccccc3o2)c2c[nH]c3cc(F)ccc23)c1 (stereo not drawn) [Compound 3m, 3-(Benzofuran-2-yl)-3-(6-fluoro-1H-indol-3-yl)-1-(3-methoxyphenyl)propan-1-one] | 19.3 ± 0.1 µM | 15.2 ± 0.2 µM |  | 154 to 155 °C | > 50 µM | 22.9 ± 0.43 µM | 22.9 ± 0.43 µM |  |  |  |  |  | 
COc1ccccc1C(=O)CC(c1cc2ccccc2o1)c1c[nH]c2ccc(Br)cc12 (stereo not drawn) [Compound 3s, 3-(Benzofuran-2-yl)-3-(5-bromo-1H-indol-3-yl)-1-(2-methoxyphenyl)propan-1-one] | 29.7 ± 0.5 µM | 18.4 ± 0.2 µM |  | 60 to 61 °C |  | 28.6 ± 0.33 µM |  |  | inactive |  |  |  | 
CN1CC(c2c[nH]c3c(Br)c(Br)cc(O)c23)NCC1c1c[nH]c2cc(Br)ccc12 (stereo not drawn) [dragmacidin] |  |  |  |  |  |  |  |  |  | 15 µg/mL (≈ 25.7 µM) | 1 to 10 µg/mL | 1 to 10 µg/mL | 1 to 10 µg/mL
